Results from publication PMC11233931, “Remodeling tumor‐associated macrophage for anti‐cancer effects by rational design of irreversible inhibition of mitogen‐activated protein kinase‐activated protein kinase 2” (MedComm, 2024).

What was measured:
Assay in all cases: Eurofins kinase selectivity profile against 380 other human recombinant kinases (Table S2)
Assay type in all cases: biochemical
[1] = target: T1, 380 human recombinant protein kinases (Homo sapiens, UniProt O94804); conditions: LOK(h), read-out: Inhibition rate
T1 construct: purchased Eurofins (Celle Lévescault)
How it was run: (§1)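 Values come from a contract kinase-profiling service that tested the compound at multiple concentrations across 380 recombinant human kinases, as an off-target check against the MK2 activity.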

[2] = target: T2, 380 human recombinant protein kinases (Homo sapiens, UniProt P08922); conditions: Ros(h), read-out: Inhibition rate
T2 construct: purchased Eurofins (Celle Lévescault)
How it was run: as §1

[3] = target: T3, 380 human recombinant protein kinases (Homo sapiens, UniProt P10398); conditions: A-Raf(h), read-out: Inhibition rate
T3 construct: purchased Eurofins (Celle Lévescault)
T3 sequence (P10398 1-606): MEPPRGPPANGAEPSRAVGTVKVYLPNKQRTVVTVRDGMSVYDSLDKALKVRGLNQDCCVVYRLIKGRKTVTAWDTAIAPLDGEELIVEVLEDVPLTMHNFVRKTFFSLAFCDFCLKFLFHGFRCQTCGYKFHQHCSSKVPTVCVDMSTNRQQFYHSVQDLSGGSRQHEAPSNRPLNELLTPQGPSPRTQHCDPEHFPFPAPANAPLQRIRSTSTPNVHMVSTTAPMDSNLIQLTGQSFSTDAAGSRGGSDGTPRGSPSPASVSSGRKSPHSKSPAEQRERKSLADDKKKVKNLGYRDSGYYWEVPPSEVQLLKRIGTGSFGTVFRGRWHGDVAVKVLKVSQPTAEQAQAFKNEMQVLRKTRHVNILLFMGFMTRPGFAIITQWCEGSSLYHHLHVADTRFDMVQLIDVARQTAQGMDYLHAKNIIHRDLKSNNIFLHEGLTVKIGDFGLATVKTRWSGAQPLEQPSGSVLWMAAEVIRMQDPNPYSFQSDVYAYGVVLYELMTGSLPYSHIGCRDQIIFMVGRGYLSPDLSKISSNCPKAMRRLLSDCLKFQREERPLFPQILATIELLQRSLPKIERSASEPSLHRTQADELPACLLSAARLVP
How it was run: as §1

[4] = target: T4, 380 human recombinant protein kinases (Homo sapiens, UniProt P27448); conditions: MARK3(h), read-out: Inhibition rate
T4 construct: purchased Eurofins (Celle Lévescault)
T4 sequence (P27448 whole entry): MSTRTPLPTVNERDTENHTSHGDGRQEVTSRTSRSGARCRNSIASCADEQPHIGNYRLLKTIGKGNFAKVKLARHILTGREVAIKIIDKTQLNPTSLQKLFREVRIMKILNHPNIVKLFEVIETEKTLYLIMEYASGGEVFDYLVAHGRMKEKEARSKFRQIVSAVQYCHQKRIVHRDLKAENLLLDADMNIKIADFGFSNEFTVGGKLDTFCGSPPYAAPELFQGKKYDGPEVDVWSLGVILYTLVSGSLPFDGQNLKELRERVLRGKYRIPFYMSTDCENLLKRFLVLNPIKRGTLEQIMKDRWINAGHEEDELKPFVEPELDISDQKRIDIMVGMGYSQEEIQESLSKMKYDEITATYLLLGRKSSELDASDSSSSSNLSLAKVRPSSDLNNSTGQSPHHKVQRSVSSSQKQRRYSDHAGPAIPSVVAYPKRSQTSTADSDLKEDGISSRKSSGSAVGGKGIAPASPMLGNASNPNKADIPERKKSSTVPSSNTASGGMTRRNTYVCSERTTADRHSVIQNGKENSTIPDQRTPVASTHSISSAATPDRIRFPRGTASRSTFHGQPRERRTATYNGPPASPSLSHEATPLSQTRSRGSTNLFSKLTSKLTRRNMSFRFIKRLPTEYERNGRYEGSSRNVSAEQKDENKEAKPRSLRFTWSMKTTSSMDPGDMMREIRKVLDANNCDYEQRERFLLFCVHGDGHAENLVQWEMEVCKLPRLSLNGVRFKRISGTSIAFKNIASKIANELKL
How it was run: as §1

[5] = target: T5, 380 human recombinant protein kinases (Homo sapiens, UniProt P41240); conditions: CSK(h), read-out: Inhibition rate
T5 construct: purchased Eurofins (Celle Lévescault)
T5 sequence (P41240 whole entry): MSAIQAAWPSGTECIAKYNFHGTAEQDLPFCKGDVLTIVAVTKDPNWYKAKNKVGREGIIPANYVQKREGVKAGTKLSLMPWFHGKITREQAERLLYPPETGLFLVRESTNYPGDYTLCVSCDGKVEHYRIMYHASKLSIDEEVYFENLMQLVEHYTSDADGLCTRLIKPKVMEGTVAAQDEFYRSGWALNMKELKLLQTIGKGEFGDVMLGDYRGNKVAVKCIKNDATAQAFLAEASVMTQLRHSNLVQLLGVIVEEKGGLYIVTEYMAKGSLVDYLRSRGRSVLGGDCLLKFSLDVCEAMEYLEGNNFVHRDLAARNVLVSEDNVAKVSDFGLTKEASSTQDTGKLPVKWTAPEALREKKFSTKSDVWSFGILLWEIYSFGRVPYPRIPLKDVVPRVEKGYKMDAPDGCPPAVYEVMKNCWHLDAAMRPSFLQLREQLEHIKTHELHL
How it was run: as §1

[6] = target: T6, 380 human recombinant protein kinases (Homo sapiens, UniProt P42336, H1047R); conditions: PI3 Kinase (p110α(H1047R)/p85α)(h), read-out: Inhibition rate (%)
T6 construct: purchased Eurofins (Celle Lévescault)
T6 sequence (P42336 whole entry H1047R): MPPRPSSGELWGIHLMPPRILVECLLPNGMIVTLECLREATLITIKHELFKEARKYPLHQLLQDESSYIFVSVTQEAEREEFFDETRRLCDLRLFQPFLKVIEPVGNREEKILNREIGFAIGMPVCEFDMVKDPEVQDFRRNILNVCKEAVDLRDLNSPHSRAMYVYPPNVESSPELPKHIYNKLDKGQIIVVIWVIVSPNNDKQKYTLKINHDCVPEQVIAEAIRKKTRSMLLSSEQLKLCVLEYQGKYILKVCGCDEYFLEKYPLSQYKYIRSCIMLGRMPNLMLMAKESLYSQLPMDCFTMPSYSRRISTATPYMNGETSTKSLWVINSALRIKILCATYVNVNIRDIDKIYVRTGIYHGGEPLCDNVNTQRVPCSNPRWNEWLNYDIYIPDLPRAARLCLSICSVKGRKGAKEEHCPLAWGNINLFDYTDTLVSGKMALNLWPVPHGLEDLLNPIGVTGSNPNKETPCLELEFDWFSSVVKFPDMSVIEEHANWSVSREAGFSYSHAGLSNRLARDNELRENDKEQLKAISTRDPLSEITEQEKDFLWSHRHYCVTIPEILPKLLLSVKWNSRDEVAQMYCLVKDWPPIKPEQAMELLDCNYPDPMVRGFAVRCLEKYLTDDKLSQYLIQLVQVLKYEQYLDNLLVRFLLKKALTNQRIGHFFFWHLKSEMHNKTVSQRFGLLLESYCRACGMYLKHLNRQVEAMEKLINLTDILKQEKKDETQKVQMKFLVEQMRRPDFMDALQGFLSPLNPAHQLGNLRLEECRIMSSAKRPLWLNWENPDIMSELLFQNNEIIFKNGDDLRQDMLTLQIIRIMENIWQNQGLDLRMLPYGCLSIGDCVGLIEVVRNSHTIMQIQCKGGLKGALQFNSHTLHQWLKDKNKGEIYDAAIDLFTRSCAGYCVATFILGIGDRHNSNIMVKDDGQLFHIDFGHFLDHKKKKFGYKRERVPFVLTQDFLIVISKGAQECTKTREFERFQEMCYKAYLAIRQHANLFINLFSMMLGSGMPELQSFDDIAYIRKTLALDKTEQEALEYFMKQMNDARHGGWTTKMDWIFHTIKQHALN
How it was run: as §1

[7] = target: T7, 380 human recombinant protein kinases (Homo sapiens, UniProt P78362); conditions: SRPK2(h), read-out: Inhibition rate (%)
T7 construct: purchased Eurofins (Celle Lévescault)
T7 sequence (P78362 whole entry): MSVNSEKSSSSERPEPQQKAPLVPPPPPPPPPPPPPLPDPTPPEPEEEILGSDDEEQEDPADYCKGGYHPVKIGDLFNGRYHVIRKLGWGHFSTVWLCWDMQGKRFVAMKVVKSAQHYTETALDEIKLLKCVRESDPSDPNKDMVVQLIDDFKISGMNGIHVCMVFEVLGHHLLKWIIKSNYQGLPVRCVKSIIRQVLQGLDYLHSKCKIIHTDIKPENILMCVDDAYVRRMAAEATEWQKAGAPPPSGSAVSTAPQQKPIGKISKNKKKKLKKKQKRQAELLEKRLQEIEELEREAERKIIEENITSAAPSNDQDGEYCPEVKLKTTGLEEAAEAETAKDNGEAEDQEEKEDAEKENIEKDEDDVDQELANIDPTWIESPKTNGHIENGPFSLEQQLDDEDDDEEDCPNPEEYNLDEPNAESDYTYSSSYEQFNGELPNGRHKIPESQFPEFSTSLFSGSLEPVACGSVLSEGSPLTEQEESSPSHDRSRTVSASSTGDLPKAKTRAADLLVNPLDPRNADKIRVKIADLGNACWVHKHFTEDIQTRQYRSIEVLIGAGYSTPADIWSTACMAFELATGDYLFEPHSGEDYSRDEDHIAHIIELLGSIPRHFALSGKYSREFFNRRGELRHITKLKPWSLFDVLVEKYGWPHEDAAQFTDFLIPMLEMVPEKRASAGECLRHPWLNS
How it was run: as §1

[8] = target: T8, 380 human recombinant protein kinases (Homo sapiens, UniProt Q02779); conditions: MLK2(h), read-out: Inhibition rate
T8 construct: purchased Eurofins (Celle Lévescault)
T8 sequence (Q02779 whole entry): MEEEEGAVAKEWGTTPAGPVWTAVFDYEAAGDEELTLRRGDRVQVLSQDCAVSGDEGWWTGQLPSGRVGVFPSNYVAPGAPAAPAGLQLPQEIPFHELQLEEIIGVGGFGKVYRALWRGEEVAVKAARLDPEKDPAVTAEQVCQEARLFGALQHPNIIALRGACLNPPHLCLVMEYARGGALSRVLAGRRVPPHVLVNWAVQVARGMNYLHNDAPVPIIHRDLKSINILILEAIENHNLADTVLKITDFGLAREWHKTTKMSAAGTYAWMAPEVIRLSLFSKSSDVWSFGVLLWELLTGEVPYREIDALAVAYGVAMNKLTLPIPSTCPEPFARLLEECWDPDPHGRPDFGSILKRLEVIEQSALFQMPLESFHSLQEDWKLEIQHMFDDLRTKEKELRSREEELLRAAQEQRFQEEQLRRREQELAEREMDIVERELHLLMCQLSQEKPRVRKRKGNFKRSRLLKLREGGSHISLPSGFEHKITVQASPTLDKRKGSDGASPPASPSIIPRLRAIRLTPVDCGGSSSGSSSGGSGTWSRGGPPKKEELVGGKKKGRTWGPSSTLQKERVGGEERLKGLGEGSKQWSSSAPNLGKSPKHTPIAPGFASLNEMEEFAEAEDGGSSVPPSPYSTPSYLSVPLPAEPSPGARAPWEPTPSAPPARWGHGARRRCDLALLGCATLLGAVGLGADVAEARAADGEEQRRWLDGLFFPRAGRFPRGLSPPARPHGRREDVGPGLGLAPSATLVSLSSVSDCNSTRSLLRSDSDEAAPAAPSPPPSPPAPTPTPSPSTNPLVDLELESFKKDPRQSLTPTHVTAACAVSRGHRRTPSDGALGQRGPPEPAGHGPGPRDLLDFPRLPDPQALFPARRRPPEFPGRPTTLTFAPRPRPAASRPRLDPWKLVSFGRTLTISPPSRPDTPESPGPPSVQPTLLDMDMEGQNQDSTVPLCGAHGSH
How it was run: as §1

[9] = target: T9, 380 human recombinant protein kinases (Homo sapiens, UniProt Q96PN8); conditions: TSSK3(h), read-out: Inhibition rate (%)
T9 construct: purchased Eurofins (Celle Lévescault)
T9 sequence (Q96PN8 1-268): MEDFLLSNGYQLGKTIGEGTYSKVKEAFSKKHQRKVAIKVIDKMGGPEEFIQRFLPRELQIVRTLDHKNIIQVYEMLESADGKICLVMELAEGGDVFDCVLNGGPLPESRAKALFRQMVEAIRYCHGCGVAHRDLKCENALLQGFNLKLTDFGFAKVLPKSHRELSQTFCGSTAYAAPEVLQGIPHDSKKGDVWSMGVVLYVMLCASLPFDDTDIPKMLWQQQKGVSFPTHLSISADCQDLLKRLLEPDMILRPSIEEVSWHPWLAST
How it was run: as §1

[10] = target: T10, 380 human recombinant protein kinases (Homo sapiens, UniProt Q9NQU5); conditions: PAK6(h), read-out: Inhibition rate
T10 construct: purchased Eurofins (Celle Lévescault)
T10 sequence (Q9NQU5 whole entry): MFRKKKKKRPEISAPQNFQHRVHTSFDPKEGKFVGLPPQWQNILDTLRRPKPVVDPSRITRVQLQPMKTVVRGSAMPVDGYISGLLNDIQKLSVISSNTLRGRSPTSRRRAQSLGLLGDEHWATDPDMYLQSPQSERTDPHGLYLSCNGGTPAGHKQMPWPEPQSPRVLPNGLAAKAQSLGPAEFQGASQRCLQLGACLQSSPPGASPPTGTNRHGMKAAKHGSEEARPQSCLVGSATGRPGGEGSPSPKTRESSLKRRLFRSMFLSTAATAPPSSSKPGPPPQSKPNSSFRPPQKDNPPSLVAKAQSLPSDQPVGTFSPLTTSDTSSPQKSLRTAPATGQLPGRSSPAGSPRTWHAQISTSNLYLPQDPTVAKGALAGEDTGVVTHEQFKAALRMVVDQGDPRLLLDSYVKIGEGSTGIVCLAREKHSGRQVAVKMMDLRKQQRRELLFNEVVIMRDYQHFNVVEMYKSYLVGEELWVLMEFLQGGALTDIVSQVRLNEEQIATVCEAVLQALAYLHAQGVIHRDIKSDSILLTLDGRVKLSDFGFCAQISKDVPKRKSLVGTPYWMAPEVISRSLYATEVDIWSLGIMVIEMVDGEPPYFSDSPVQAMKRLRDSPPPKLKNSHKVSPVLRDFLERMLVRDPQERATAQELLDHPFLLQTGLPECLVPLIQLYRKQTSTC
How it was run: as §1

[11] = target: T11, 380 human recombinant protein kinases (Homo sapiens, UniProt Q9Y6M4); conditions: CK1γ3(h), read-out: Inhibition rate
T11 construct: purchased Eurofins (Celle Lévescault)
T11 sequence (Q9Y6M4 whole entry): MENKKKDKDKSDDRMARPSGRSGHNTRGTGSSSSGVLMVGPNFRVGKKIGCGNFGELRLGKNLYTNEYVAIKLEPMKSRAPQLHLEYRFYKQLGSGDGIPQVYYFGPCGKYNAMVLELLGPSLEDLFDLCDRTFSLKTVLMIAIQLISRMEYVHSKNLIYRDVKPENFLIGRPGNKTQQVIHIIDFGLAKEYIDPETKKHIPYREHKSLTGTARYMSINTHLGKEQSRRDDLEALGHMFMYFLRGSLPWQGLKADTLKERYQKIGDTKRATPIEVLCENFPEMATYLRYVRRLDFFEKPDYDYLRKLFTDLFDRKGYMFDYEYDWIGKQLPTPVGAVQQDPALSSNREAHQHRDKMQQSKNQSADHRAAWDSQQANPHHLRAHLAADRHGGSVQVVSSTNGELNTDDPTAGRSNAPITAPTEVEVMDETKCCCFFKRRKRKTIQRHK
How it was run: as §1

With `C=CC(=O)Nc1cc(-c2cc(-c3cc4c([nH]3)CCNC4=O)ccn2)ccc1OC(F)(F)F` [compound 11] the inhibition at 0.01 µM ([1]; 10 nM) was -2%, the inhibition at 0.1 µM ([1]; 100 nM) was 6% and the inhibition at 1 µM ([1]; 1000 nM) was 54%. For the same compound, the inhibition at 0.01 µM ([2]; 10 nM) was 1%, the inhibition at 0.1 µM ([2]; 100 nM) was 1% and the inhibition at 1 µM ([2]; 1000 nM) was 6%. The inhibition at 0.01 µM ([3]; 10 nM) was 1%, the inhibition at 0.1 µM ([3]; 100 nM) was 15% and the inhibition at 1 µM ([3]; 1000 nM) was 18%. The inhibition at 0.01 µM ([4]; 10 nM) was 2%, the inhibition at 0.1 µM ([4]; 100 nM) was -4% and the inhibition at 1 µM ([4]; 1000 nM) was 5%. It also gave an inhibition at 0.01 µM ([5]; 10 nM) of -2%, an inhibition at 0.1 µM ([5]; 100 nM) of -1% and an inhibition at 1 µM ([5]; 1000 nM) of -13%. It also gave an inhibition at 0.01 µM ([6]; 10 nM) of 0%, an inhibition at 0.1 µM ([6]; 100 nM) of 0% and an inhibition at 1 µM ([6]; 1000 nM) of 2%. For the same compound, the inhibition at 0.01 µM ([7]; 10 nM) was 7%, the inhibition at 0.1 µM ([7]; 100 nM) was -1% and the inhibition at 1 µM ([7]; 1000 nM) was 6%. The inhibition at 0.01 µM ([8]; 10 nM) was -5%, the inhibition at 0.1 µM ([8]; 100 nM) was 2% and the inhibition at 1 µM ([8]; 1000 nM) was 10%. The inhibition at 0.01 µM ([9]; 10 nM) was 0%, the inhibition at 0.1 µM ([9]; 100 nM) was 5% and the inhibition at 1 µM ([9]; 1000 nM) was -2%. The inhibition at 0.01 µM ([10]; 10 nM) was -2%, the inhibition at 0.1 µM ([10]; 100 nM) was -5% and the inhibition at 1 µM ([10]; 1000 nM) was -2%. The inhibition at 0.01 µM ([11]; 10 nM) was -13%, the inhibition at 0.1 µM ([11]; 100 nM) was 15% and the inhibition at 1 µM ([11]; 1000 nM) was 67%.
